# Measured values: patent US20220062240A1, “METHODS OF TREATING CANCER USING A CLK INHIBITOR” (BioSplice Therapeutics, Inc., priority 2018, published 2022)
# pEC50: −log10 of the molar value. Read-outs that look alike come from different tables or passages of the source.
# Assays:
# [1] = system: liver cancer (3 cell lines); assay: CellTiter-Glo Viability Assay, liver cancer; type: cell-based; conditions: Homo sapiens, inhibition of cancer cell proliferation
# [2] = system: ovarian cancer (4 cell lines); assay: CellTiter-Glo Viability Assay, ovarian cancer; type: cell-based; conditions: Homo sapiens, inhibition of cancer cell proliferation
# CLK2 = target: T1, CLK2 (Homo sapiens, UniProt P49760); assay: CLK2 kinase activity assay (Z-lyte, Ser/Thr 6 peptide); type: biochemical; conditions: recombinant CLK2 kinase, ATP 60 μM; read-out: EC50
# T1 construct: purchased Thermo Fisher (Life Technologies), Z'-LYTE Kinase Assay Kits
# T1 sequence (P49760 whole entry): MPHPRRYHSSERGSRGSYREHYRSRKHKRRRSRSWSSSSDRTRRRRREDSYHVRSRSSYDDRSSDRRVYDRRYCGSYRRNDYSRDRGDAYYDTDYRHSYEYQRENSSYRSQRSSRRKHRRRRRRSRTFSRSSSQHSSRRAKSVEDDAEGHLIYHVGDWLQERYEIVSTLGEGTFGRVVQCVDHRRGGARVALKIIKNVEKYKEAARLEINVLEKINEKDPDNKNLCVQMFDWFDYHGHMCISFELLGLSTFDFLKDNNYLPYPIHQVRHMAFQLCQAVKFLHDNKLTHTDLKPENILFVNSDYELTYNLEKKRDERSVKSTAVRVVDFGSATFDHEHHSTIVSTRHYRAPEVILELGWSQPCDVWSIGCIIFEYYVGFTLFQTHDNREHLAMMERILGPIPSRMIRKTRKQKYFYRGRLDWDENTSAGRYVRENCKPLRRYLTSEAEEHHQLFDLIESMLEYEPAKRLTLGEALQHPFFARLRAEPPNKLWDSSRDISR
# Method: All reactions were performed in duplicate.
# CAMA1 = assay: CellTiter-Glo Viability Assay, breast cancer; type: cell-based; conditions: Homo sapiens, CAMA-1, 96 h; CAMA1, breast cancer, four days; read-out: EC50
# HCC1599 = assay: CellTiter-Glo Viability Assay, breast cancer; type: cell-based; conditions: Homo sapiens, 96 h; HCC1599, breast cancer, four days; read-out: EC50
# DU4475 = assay: CellTiter-Glo Viability Assay, breast cancer; type: cell-based; conditions: Homo sapiens, DU-4475, 96 h; DU4475, breast cancer, four days; read-out: EC50
# ZR-75-1 = assay: CellTiter-Glo Viability Assay, breast cancer; type: cell-based; conditions: Homo sapiens, 96 h; ZR-75-1, breast cancer, four days; read-out: EC50
# T47D = assay: CellTiter-Glo Viability Assay, breast cancer; type: cell-based; conditions: Homo sapiens, 96 h, breast cancer, four days, read-out: EC50
# MDA-MB-231-Luc = assay: CellTiter-Glo Viability Assay, breast cancer; type: cell-based; conditions: Homo sapiens, 96 h; MDA-MB-231-Luc, breast cancer, four days; read-out: EC50
# MCF7 = assay: CellTiter-Glo Viability Assay, breast cancer; type: cell-based; conditions: Homo sapiens, 96 h; MCF7, breast cancer, four days; read-out: EC50
# BT-549 = assay: CellTiter-Glo Viability Assay, breast cancer; type: cell-based; conditions: Homo sapiens, 96 h; BT-549, breast cancer, four days; read-out: EC50
# [3] = system: haematopoietic & lymphoid tumors (13 cell lines); assay: CellTiter-Glo Viability Assay, haematopoietic & lymphoid tumors; type: cell-based; conditions: Homo sapiens, inhibition of cancer cell proliferation
# [4] = system: pancreatic cancer (8 cell lines); assay: CellTiter-Glo Viability Assay, pancreatic cancer; type: cell-based; conditions: Homo sapiens, inhibition of cancer cell proliferation
# CLK3 = CLK3 (Homo sapiens, UniProt P49761); assay: CLK3 kinase activity assay (Z-lyte, Ser/Thr 18 peptide)
# CLK3, sequence (P49761 whole entry): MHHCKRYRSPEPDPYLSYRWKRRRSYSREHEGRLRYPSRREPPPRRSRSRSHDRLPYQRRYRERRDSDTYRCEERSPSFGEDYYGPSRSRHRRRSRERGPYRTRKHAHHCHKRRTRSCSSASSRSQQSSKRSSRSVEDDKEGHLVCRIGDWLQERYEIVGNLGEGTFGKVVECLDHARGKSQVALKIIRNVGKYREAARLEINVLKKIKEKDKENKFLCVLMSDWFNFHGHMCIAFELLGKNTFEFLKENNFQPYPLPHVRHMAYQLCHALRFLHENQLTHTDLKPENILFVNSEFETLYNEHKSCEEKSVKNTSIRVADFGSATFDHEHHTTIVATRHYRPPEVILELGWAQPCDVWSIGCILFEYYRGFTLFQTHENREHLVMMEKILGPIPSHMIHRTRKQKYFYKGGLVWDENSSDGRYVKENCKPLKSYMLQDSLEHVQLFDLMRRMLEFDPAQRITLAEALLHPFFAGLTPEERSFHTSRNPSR
# [5] = system: colorectal cancer (6 cell lines); assay: CellTiter-Glo Viability Assay, colorectal cancer; type: cell-based; conditions: Homo sapiens, inhibition of cancer cell proliferation
# [6] = system: lung cancer (4 cell lines); assay: CellTiter-Glo Viability Assay, lung cancer; type: cell-based; conditions: Homo sapiens, inhibition of cancer cell proliferation
# all 50 cell lines = assay: CellTiter-Glo Viability Assay, average across all cell lines; type: cell-based; conditions: Homo sapiens; across all 50 cell lines; read-out: average EC50 for inhibition of cancer cell proliferation
# In short: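 4-day proliferation, 37° C/5% CO2; 300-3,000 cells/well; compound in duplicate vs DMSO controls. Panel: breast, colorectal, heme/lymphoid, liver, lung, ovarian, pancreatic, prostate lines. Read-out: CellTiter-Glo ATP luminescence, EC50 from dose-response.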
# [7] = system: prostate cancer (5 cell lines); assay: CellTiter-Glo Viability Assay, prostate cancer; type: cell-based; conditions: Homo sapiens
# [8] = SNU-398, SNU398 cell line, read-out: Liver cancer, EC50 SNU398
# [9] = HEPG2 cell line, read-out: Liver cancer, EC50 HEPG2
# [10] = PLC/PRF/5 cell line, read-out: Liver cancer, EC50 PLC/PRF/5
# [11] = PA-1, PA1 cell line, read-out: Ovarian cancer, EC50 (μM) PA1
# [12] = TOV112D, TOV-112D cell line, read-out: Ovarian cancer, EC50 (μM) TOV-112D
# [13] = OV-90 cell line, read-out: Ovarian cancer, EC50 (μM) OV-90
# [14] = OVCAR-3 cell line, read-out: Ovarian cancer, EC50 (μM) OVCAR-3
# [15] = DND41, DND-41 cell line, read-out: Haematopoietic & Lymphoid tumors, EC50 (μM) DND-41
# [16] = MV4-11, MV-4-11 cell line, read-out: Haematopoietic & Lymphoid tumors, EC50 (μM) MV-4-11
# [17] = Rec1, REC-1 cell line, read-out: Haematopoietic & Lymphoid tumors, EC50 (μM) REC-1
# [18] = SU-DHL-4, SUDHL4 cell line, read-out: Haematopoietic & Lymphoid tumors, EC50 (μM) SUDHL4
# [19] = HL-60 cell line, read-out: Haematopoietic & Lymphoid tumors, EC50 (μM) HL-60
# [20] = JM1 cell line, read-out: Haematopoietic & Lymphoid tumors, EC50 (μM) JM1
# [21] = JURKAT, Clone E6-1 cell line, read-out: Haematopoietic & Lymphoid tumors, EC50 (μM) JURKAT, Clone E6-1
# [22] = JeKo-1 cell line, read-out: Haematopoietic & Lymphoid tumors, EC50 (μM) JeKo-1
# [23] = KASUMI-1 cell line, read-out: Haematopoietic & Lymphoid tumors, EC50 (μM) KASUMI-1
# [24] = Loucy cell line, read-out: Haematopoietic & Lymphoid tumors, EC50 (μM) Loucy
# [25] = MOLT-4 cell line, read-out: Haematopoietic & Lymphoid tumors, EC50 (μM) MOLT-4
# [26] = TF-1 cell line, read-out: Haematopoietic & Lymphoid tumors, EC50 (μM) TF-1
# [27] = TOLEDO cell line, read-out: Haematopoietic & Lymphoid tumors, EC50 (μM) TOLEDO
# [28] = BXPC-3, BxPC3 cell line, read-out: Pancreatic cancer, EC50 BxPC3
# [29] = CAPAN-1, Capan1 cell line, read-out: Pancreatic cancer, EC50 Capan1
# [30] = Capan-2, Capan2 cell line, read-out: Pancreatic cancer, EC50 Capan2
# [31] = MIA PaCa-2 cell line, read-out: Pancreatic cancer, EC50 MIA PaCa-2
# [32] = PANC 05.04 cell line, read-out: Pancreatic cancer, EC50 PANC 05.04
# [33] = PANC-1 cell line, read-out: Pancreatic cancer, EC50 PANC-1
# [34] = UPAFII cell line, read-out: Pancreatic cancer, EC50 UPAFII
# [35] = HCT-116, HCT116 cell line, read-out: Colorectal cancer, EC50 (μM) HCT116
# [36] = HT-29, HT29 cell line, read-out: Colorectal cancer, EC50 (μM) HT29
# [37] = SW-620, SW620 cell line, read-out: Colorectal cancer, EC50 (μM) SW620
# [38] = DLD-1 cell line, read-out: Colorectal cancer, EC50 (μM) DLD-1
# [39] = SW48 cell line, read-out: Colorectal cancer, EC50 (μM) SW48
# [40] = SW480 cell line, read-out: Colorectal cancer, EC50 (μM) SW480
# [41] = A-427, A427 cell line, read-out: Lung cancer, EC50 (μM) A427
# [42] = HCC78, HCC-78 cell line, read-out: Lung cancer, EC50 (μM) HCC-78
# [43] = NCI-H460 cell line, read-out: Lung cancer, EC50 (μM) NCI-H460
# [44] = NCI-H522 cell line, read-out: Lung cancer, EC50 (μM) NCI-H522
# [45] = DU-145, read-out: Prostate cancer EC50 Du-145
# [46] = PC-3, PC3 cell line, inhibition of cancer cell proliferation, read-out: Prostate cancer EC50 PC3
# [47] = 22Rv1 cell line, inhibition of cancer cell proliferation, read-out: Prostate cancer EC50 22Rv1
# [48] = LNCap clone FGC cell line, inhibition of cancer cell proliferation, read-out: Prostate cancer EC50 LNCap clone FGC
# [49] = VCaP (Sigma) cell line, inhibition of cancer cell proliferation, read-out: Prostate cancer EC50 VCaP (Sigma)
structure (smiles),measurement,setting,value
Cn1ncc(-c2ccc3cnc(NC(=O)C4CC5(C4)CN(CCF)C5)cc3c2)c1CN1CCCCC1 [Compound 77],pEC50,[1]; [8],6.47
same,pEC50,[1]; [9],6.12
same,pEC50,[1]; [10],5.66
same,EC50,[2]; [11],0.71 µM
same,EC50,[2]; [12],0.457 µM
same,EC50,[2]; [13],0.806 µM
same,EC50,[2]; [14],0.204 µM
same,pEC50,CLK2,8.24
same,pEC50,CAMA1,5.73
same,pEC50,HCC1599,6.22
same,pEC50,DU4475,6.34
same,pEC50,ZR-75-1,6.08
same,pEC50,T47D,5.99
same,pEC50,MDA-MB-231-Luc,6.05
same,pEC50,MCF7,5.89
same,pEC50,BT-549,6.26
same,EC50,[3]; [15],0.854 µM
same,EC50,[3]; [16],0.069 µM
same,EC50,[3]; [17],0.361 µM
same,EC50,[3]; [18],0.424 µM
same,EC50,[3]; [19],1.78 µM
same,EC50,[3]; [20],0.375 µM
same,EC50,[3]; [21],0.699 µM
same,EC50,[3]; [22],0.469 µM
same,EC50,[3]; [23],0.197 µM
same,EC50,[3]; [24],0.368 µM
same,EC50,[3]; [25],1.22 µM
same,EC50,[3]; [26],0.944 µM
same,EC50,[3]; [27],0.584 µM
same,pEC50,[4]; [28],6.37
same,pEC50,[4]; [29],6.17
same,pEC50,[4]; [30],6.31
same,pEC50,[4]; [31],6.50
same,pEC50,[4]; [32],6.20
same,pEC50,[4]; [33],6.18
same,pEC50,[4]; [34],6.18
same,pEC50,CLK3,7.30
same,EC50,[5]; [35],0.294 µM
same,EC50,[5]; [36],0.537 µM
same,EC50,[5]; [37],0.187 µM
same,EC50,[5]; [38],0.229 µM
same,EC50,[5]; [39],0.12 µM
same,EC50,[5]; [40],0.383 µM
same,EC50,[6]; [41],0.973 µM
same,EC50,[6]; [42],1.28 µM
same,EC50,[6]; [43],0.649 µM
same,EC50,[6]; [44],0.312 µM
same,pEC50,all 50 cell lines,6.16
same,pEC50,[7]; [45],6.13
same,pEC50,[7]; [46],6.05
same,pEC50,[7]; [47],6.09
same,pEC50,[7]; [48],6.36
same,pEC50,[7]; [49],5.91
CN(C)C1CCN(c2cc(C(=O)Nc3ncc4ccc(-c5cn(C)nn5)cc4n3)ccn2)CC1 [Compound 80],pEC50,[1]; [8],6.20
same,pEC50,[1]; [9],5.43
same,pEC50,[1]; [10],< 5.00
same,EC50,[2]; [11],3.18 µM
same,EC50,[2]; [12],1.97 µM
same,EC50,[2]; [13],5.6 µM
same,EC50,[2]; [14],1.41 µM
same,pEC50,CLK2,8.05
same,pEC50,CAMA1,5.51
same,pEC50,HCC1599,5.66
same,pEC50,DU4475,5.49
same,pEC50,ZR-75-1,5.39
same,pEC50,T47D,5.34
same,pEC50,MDA-MB-231-Luc,5.39
same,pEC50,MCF7,5.18
same,pEC50,BT-549,5.35
same,EC50,[3]; [15],2.11 µM
same,EC50,[3]; [16],0.879 µM
same,EC50,[3]; [17],2.45 µM
same,EC50,[3]; [18],2.27 µM
same,EC50,[3]; [19],3.25 µM
same,EC50,[3]; [20],1.19 µM
same,EC50,[3]; [21],4.05 µM
same,EC50,[3]; [22],0.731 µM
same,EC50,[3]; [23],3.05 µM
same,EC50,[3]; [24],1.6 µM
same,EC50,[3]; [25],3.61 µM
same,EC50,[3]; [26],> 10 µM
same,EC50,[3]; [27],2.8 µM
same,pEC50,[4]; [28],5.02
same,pEC50,[4]; [29],5.43
same,pEC50,[4]; [30],5.12
same,pEC50,[4]; [31],5.96
same,pEC50,[4]; [32],5.29
same,pEC50,[4]; [33],5.05
same,pEC50,[4]; [34],5.45
same,pEC50,CLK3,7.41
same,EC50,[5]; [35],2.06 µM
same,EC50,[5]; [36],6.22 µM
same,EC50,[5]; [37],1.4 µM
same,EC50,[5]; [38],7.22 µM
same,EC50,[5]; [39],0.926 µM
same,EC50,[5]; [40],1.51 µM
same,EC50,[6]; [41],2.81 µM
same,EC50,[6]; [42],5.46 µM
same,EC50,[6]; [43],> 10 µM
same,EC50,[6]; [44],1.59 µM
same,pEC50,all 50 cell lines,5.39
same,pEC50,[7]; [45],5.24
same,pEC50,[7]; [46],5.40
same,pEC50,[7]; [47],5.55
same,pEC50,[7]; [48],5.04
same,pEC50,[7]; [49],5.22
